Results taken from ChEMBL document CHEMBL1201862, “PubChem BioAssay data set” (2004).
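The compound was tested at five concentrations on cells cultured in 96-well plates, with a 48-hour exposure period. GI50 is the concentration that inhibits growth by half.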 Active and inactive are the calls of the source. No stated cut-off is given here; in the data, active = GI50 up to about 1.1 µM and inactive = higher.

Experiments:
Assay in all cases: NCI tumour cell line growth inhibition, 48 h
[1] = system: KM12
[2] = system: K562
[3] = system: Malme-3M
[4] = system: HOP-18
[5] = system: HCT-15
[6] = system: NCI-H522
[7] = system: IGROV-1
[8] = system: SN12C
[9] = system: OVCAR-4
[10] = system: CCRF-CEM
[11] = system: DMS-273
[12] = system: TK-10
[13] = system: SK-MEL-2
[14] = system: SK-MEL-5
[15] = system: RPMI-8226
[16] = system: RXF 631
[17] = system: XF498
[18] = system: UACC-62
[19] = system: SF-539
[20] = system: EKVX
[21] = system: SK-MEL-28
[22] = system: MOLT-4
[23] = system: A549
[24] = system: KM-20L2
[25] = system: SW-620
[26] = system: UO-31
[27] = system: NCI-H23
[28] = system: RXF 393
[29] = system: HOP-62
[30] = system: SF-295
[31] = system: HCT-116
[32] = system: NCI-H226
[33] = system: HCC 2998
[34] = system: OVCAR-5
[35] = system: SNB-78
[36] = system: M19-MEL
[37] = system: ACHN
[38] = system: CAKI-1
[39] = system: U-251
[40] = system: OVCAR-3
[41] = system: DLD-1
[42] = system: SNB-19
[43] = system: SR
[44] = system: OVCAR-8
[45] = system: SF-268
[46] = system: SK-OV-3
[47] = system: HOP-92
[48] = system: LXFL 529
[49] = system: COLO 205
[50] = system: LOX IMVI
[51] = system: DMS-114
[52] = system: M14
[53] = system: 786-0
[54] = system: UACC-257
[55] = system: PC-3
[56] = system: NCI-H460
[57] = system: DU-145
[58] = system: MDA-N
[59] = system: HT-29
[60] = system: HL-60
[61] = system: MCF7
[62] = system: NCI/ADR-RES
[63] = system: MDA-MB-231
[64] = system: T47D
[65] = system: Hs-578T
[66] = system: SNB-75
[67] = system: BT-549
[68] = system: MDA-MB-435
[69] = system: A498

In the case of `O=c1c(C(c2ccc(Cl)cc2)c2c(O)c3ccccc3n(-c3ccccc3)c2=O)c(O)c2ccccc2n1-c1ccccc1`, the GI50 [1] is reported as 68.4 µM (inactive), the GI50 [2] is reported as 40.5 µM (inactive) and the GI50 [3] is reported as 21.9 µM (inactive). For the same molecule, the GI50 [4] was > 100 µM (inactive), the GI50 [5] was 15.2 µM and the GI50 [6] was 22.6 µM (inactive). The GI50 [7] was > 100 µM (inactive), the GI50 [8] was 19.1 µM (inactive) and the GI50 [9] was 32.1 µM (inactive). For the same molecule, the GI50 [10] was 18.7 µM (inactive), the GI50 [11] was 36.9 µM (inactive) and the GI50 [12] was 67.8 µM (inactive). For the same molecule, the GI50 [13] was 19.5 µM (inactive), the GI50 [14] was 28.7 µM (inactive) and the GI50 [15] was 14.6 µM (inactive). For the same molecule, the GI50 [16] was 19.1 µM (inactive), the GI50 [17] was 18.8 µM (inactive) and the GI50 [18] was 13.3 µM (inactive). The GI50 [19] was 19.1 µM (inactive), the GI50 [20] was 17.2 µM (inactive) and the GI50 [21] was > 100 µM (inactive). For the same molecule, the GI50 [22] was 4.45 µM (inactive), the GI50 [23] was 15.2 µM (inactive) and the GI50 [24] was 37.6 µM (inactive). For the same molecule, the GI50 [25] was 34 µM (inactive), the GI50 [26] was 22 µM (inactive) and the GI50 [27] was 11.1 µM (inactive). The GI50 [28] was 36.6 µM (inactive), the GI50 [29] was 28 µM (inactive) and the GI50 [30] was 14.4 µM (inactive). The GI50 [31] was 24.8 µM (inactive), the GI50 [32] was 73.6 µM (inactive) and the GI50 [33] was 23.3 µM (inactive). For the same molecule, the GI50 [34] was > 100 µM (inactive), the GI50 [35] was 48.8 µM (inactive) and the GI50 [36] was 48.1 µM (inactive). For the same molecule, the GI50 [37] was 7.67 µM (inactive), the GI50 [38] was 28.2 µM (inactive) and the GI50 [39] was 16.9 µM (inactive). For the same molecule, the GI50 [40] was 29 µM (inactive), the GI50 [41] was 7.08 µM (inactive) and the GI50 [42] was 17.7 µM (inactive). The GI50 [43] was 7.43 µM (inactive), the GI50 [44] was 29.4 µM (inactive) and the GI50 [45] was 16.9 µM (inactive). The GI50 [46] was 61.8 µM (inactive), the GI50 [47] was 16.7 µM (inactive) and the GI50 [48] was 26.5 µM (inactive). For the same molecule, the GI50 [49] was 30.8 µM (inactive), the GI50 [50] was 18.8 µM (inactive) and the GI50 [51] was 28.7 µM (inactive).
In the case of `CN(C)CCCNc1ccc2ncn3c4ccc(O)cc4c(=O)c1c23`, the GI50 [1] is reported as 3.14 µM (inactive), the GI50 [2] is reported as 1.35 µM (inactive) and the GI50 [3] is reported as 2.83 µM (inactive). The GI50 [52] was 1.65 µM (inactive), the GI50 [4] was 3.86 µM (inactive) and the GI50 [5] was 1.91 µM. The GI50 [6] was 0.252 µM (active), the GI50 [53] was 0.692 µM (active) and the GI50 [7] was 0.577 µM (active). The GI50 [8] was 0.5 µM (active), the GI50 [9] was 1.55 µM (inactive) and the GI50 [10] was 0.218 µM (active). For the same molecule, the GI50 [11] was 0.246 µM (active), the GI50 [12] was 1.76 µM (inactive) and the GI50 [13] was 6.21 µM (inactive). The GI50 [14] was 0.64 µM (active), the GI50 [15] was 1.58 µM (inactive) and the GI50 [54] was 8.09 µM (inactive). The GI50 [55] was 1.83 µM (inactive), the GI50 [16] was 0.318 µM (active) and the GI50 [56] was 0.105 µM (active). The GI50 [57] was 0.638 µM (active), the GI50 [58] was 4.48 µM (inactive) and the GI50 [17] was 3.83 µM (inactive). For the same molecule, the GI50 [18] was 1.2 µM (inactive), the GI50 [19] was 0.506 µM (active) and the GI50 [20] was 4.71 µM (inactive). The GI50 [21] was 4.71 µM (inactive), the GI50 [22] was 0.0406 µM (active) and the GI50 [23] was 0.0721 µM (active). The GI50 [24] was 1.59 µM (inactive), the GI50 [59] was 1.3 µM (inactive) and the GI50 [60] was 0.277 µM (active). For the same molecule, the GI50 [61] was 0.0964 µM (active), the GI50 [25] was 0.647 µM (active) and the GI50 [62] was 12.4 µM (inactive). For the same molecule, the GI50 [26] was 1.35 µM (inactive), the GI50 [27] was 0.716 µM (active) and the GI50 [63] was 7.46 µM (inactive). The GI50 [28] was 0.439 µM (active), the GI50 [29] was 0.538 µM (active) and the GI50 [30] was 0.708 µM (active). The GI50 [64] was 12 µM (inactive), the GI50 [31] was 0.458 µM (active) and the GI50 [32] was 0.483 µM (active). For the same molecule, the GI50 [33] was 4.43 µM (inactive), the GI50 [65] was 0.541 µM (active) and the GI50 [34] was 3.03 µM (inactive). The GI50 [66] was 0.601 µM (active), the GI50 [35] was 9.73 µM (inactive) and the GI50 [36] was 1.53 µM (inactive). The GI50 [37] was 0.158 µM (active), the GI50 [38] was 0.195 µM (active) and the GI50 [39] was 0.203 µM (active). The GI50 [40] was 3.58 µM (inactive), the GI50 [41] was 1.4 µM (inactive) and the GI50 [67] was 17.3 µM (inactive). The GI50 [68] was 4.88 µM (inactive), the GI50 [42] was 1.24 µM (inactive) and the GI50 [43] was < 0.0189 µM (active). The GI50 [44] was 1.07 µM (active), the GI50 [69] was 0.697 µM (active) and the GI50 [45] was 0.957 µM (active). The GI50 [46] was 0.321 µM (active), the GI50 [47] was 0.705 µM (active) and the GI50 [48] was 1.87 µM (inactive). The GI50 [49] was 1.11 µM (active), the GI50 [50] was 0.607 µM (active) and the GI50 [51] was 0.334 µM (active).
